PubChem BioAssay (NCI)
Values joined by “and” are separate entries in the source; they are usually repeats but may differ in a detail not shown here. Equal entries are not always repeated.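 1) Cells in 96-well plates. 2) Compound, 48 h, 5 concentrations. 3) Linear interpolation between surrounding doses. 4) Unreached endpoint = highest concentration. GI50: concentration for 50% inhibition of growth. TGI denotes the concentration required for complete inhibition of growth.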

What was measured:
Assay in all cases: NCI-60 cell line screen, 48 h
[1] = system: A549 NSCLC
[2] = system: BT-549 breast
[3] = system: IGROV1 ovarian
[4] = system: MCF7 breast
[5] = system: NCI-H226 lung
[6] = system: PC-3 prostate
[7] = system: SF-539 CNS
[8] = system: SK-MEL-5 melanoma
[9] = system: SNB-19 CNS
[10] = system: T-47D breast

SMILES | GI50 [1] | TGI [1] | GI50 [2] | TGI [2] | GI50 [3] | TGI [3] | GI50 [4] | TGI [4] | GI50 [5] | TGI [5] | GI50 [6] | TGI [6] | TGI [7] | GI50 [8] | TGI [8] | GI50 [9] | TGI [9] | GI50 [10] | TGI [10] | GI50 [7]
NC1=NCCN1CC(=O)O | > 10000 µM | > 10000 µM | > 10000 µM | > 10000 µM | > 10000 µM | > 10000 µM | > 10000 µM | > 10000 µM | > 10000 µM | > 10000 µM | > 10000 µM | > 10000 µM | > 1000 µM | > 10000 µM | > 10000 µM | > 10000 µM | > 10000 µM | > 10000 µM | > 10000 µM | –
Nc1c(C(=O)c2ccc(CCCN3CCOCC3)cc2)cnn1-c1ccc(F)cc1 | > 25 µM | > 25 µM | > 25 µM | > 25 µM | > 25 µM | > 25 µM | > 25 µM | > 25 µM | > 15.2 µM | > 25 µM | > 25 µM | > 25 µM | > 25 µM | 8.01 µM | 24.3 µM | > 25 µM | > 25 µM | 10.3 µM | > 25 µM | > 25 µM
COC(=O)[C@H](Cc1ccc(O)cc1)NC(=O)[C@@H](OC)[C@@H]1Cc2cc3cc(OC4CC(OC5CC(O)C(O)C(C)O5)C(O)C(C)O4)c(C)c(O)c3c(O)c2C(=O)[C@H]1OC1CC(OC2CC(OC3CC(C)(O)C(O)C(C)O3)C(O)C(C)O2)C(O)C(C)O1 (some centres not stated) | 0.15 µM | > 25 µM | 0.0782 µM | 2.09 µM | 0.0357 µM | > 25 µM | 0.0119 µM | > 25 µM | 0.0759 µM | 0.582 µM | 0.106 µM | > 25 µM | 1.97 µM | 0.0428 µM | 0.448 µM | 0.0713 µM | > 25 µM | 0.0873 µM | > 25 µM | 0.0639 µM
CCCCCCCCCCCCCCCCOP(=O)(O)OP(=O)(O)OCC1OC(n2ccc(N)nc2=O)C(O)C1O (configuration not stated) | – | > 100 µM | – | > 100 µM | – | > 100 µM | > 100 µM and 19.3 µM | > 100 µM | – | > 100 µM | – | > 100 µM | > 100 µM | – | > 100 µM | > 100 µM and 23.8 µM | > 100 µM | – | > 100 µM | –
COc1ccc2c(c1OC)OCC(CN(C)C)C2=O (configuration not stated) | – | > 63.9 µM | – | 38.7 µM | – | 35.4 µM | – | 27.5 µM | – | > 67.4 µM | – | 34.6 µM | 36.7 µM | – | 31.6 µM | – | > 100 µM | – | > 62.2 µM | –
CC1=C([Te]c2ccc(O)cc2)C(=O)c2ccccc2C1=O | 0.404 µM | 4.18 µM | 0.448 µM | 4.22 µM | 1.08 µM | 4.91 µM | 1.49 µM | 4.08 µM | 0.33 µM | 1.57 µM | 1.53 µM | 5.11 µM | 4.23 µM | 1.53 µM | 2.92 µM | 2.8 µM | 10.7 µM | 1.1 µM | 3.25 µM | 1.8 µM
Cc1ncsc1-c1ccc(CNC(=O)[C@@H]2C[C@@H](O)CN2C(=O)[C@@H](NC(=O)C2(C#N)CC2)C(C)(C)C)cc1 | > 100 µM | > 100 µM | > 100 µM | > 100 µM | > 100 µM | > 100 µM | > 100 µM | > 100 µM | > 100 µM | > 100 µM | > 100 µM | > 100 µM | > 100 µM | > 100 µM | > 100 µM | > 100 µM | > 100 µM | > 100 µM | > 100 µM | > 100 µM
CCN(CC)CCCC(C)N=c1cc(Nc2cc(=NC(C)CCCN(CC)CC)c3cc(OC)ccc3o2)oc2ccc(OC)cc12 (configuration not stated) | 0.849 µM | 1.87 µM | 3.16 µM | 9.49 µM | 1.89 µM | 8.72 µM | 1.08 µM | 3.68 µM | 0.58 µM | 2.37 µM | 1.49 µM | 6.8 µM | 1.5 µM | 0.731 µM | 1.39 µM | 1.99 µM | 13 µM | 2.92 µM | 13.2 µM | 0.803 µM
CC(=O)C1(N=Nc2ccc(S(N)(=O)=O)cc2)CCOC1=O (configuration not stated) | – | > 100 µM | – | > 100 µM | – | > 100 µM | – | > 100 µM | – | > 100 µM | – | > 100 µM | > 100 µM | – | > 100 µM | – | > 100 µM | – | > 100 µM | –
COC(=O)/C=C/c1cn(C(C)=O)c2ccc(Br)cc12 | 33.8 µM | > 100 µM | 17.2 µM | 83.6 µM | 19.1 µM | > 100 µM | 15.7 µM | > 100 µM | 20.9 µM | > 93.4 µM | 28 µM | > 100 µM | > 100 µM | 33.5 µM | > 100 µM | 37.2 µM | > 100 µM | 23.4 µM | > 100 µM | 29.9 µM
O=C(Nc1nc2ccc(F)cc2s1)c1cccnc1Nc1ccc(Cl)cc1 | 3.35 µM | > 33.7 µM | 2.77 µM | > 29.3 µM | 2.6 µM | > 34.1 µM | 2.32 µM | > 100 µM | 2.97 µM | > 100 µM | 1.93 µM | > 27.4 µM | > 27.9 µM | 1.39 µM | 3.38 µM | 3.83 µM | > 100 µM | 1.04 µM | > 29.2 µM | 2.89 µM
Cc1cc(O)cc(C)c1/C=C/c1cncc(-c2nn[nH]n2)c1 | > 25 µM | > 25 µM | > 25 µM | > 25 µM | > 25 µM | > 25 µM | > 25 µM | > 25 µM | > 25 µM | > 25 µM | > 25 µM | > 25 µM | > 25 µM | > 25 µM | > 25 µM | > 25 µM | > 25 µM | > 25 µM | > 25 µM | > 25 µM
COc1ccc(-c2nc(N3CCN(C(=O)C4CCCCC4)CC3)c3c4c(sc3n2)CCCC4)cc1 | 50.1 µM | > 100 µM | 57.5 µM | > 100 µM | 41.2 µM | > 100 µM | 82.9 µM | > 100 µM | 41 µM | > 100 µM | 26.1 µM | > 100 µM | > 100 µM | 68.9 µM | > 100 µM | 25.7 µM | > 100 µM | 20.6 µM | > 100 µM | 39.4 µM
S=c1nc(Cl)cc2[nH]c(Cl)cn12 | – | > 100 µM | – | > 100 µM | – | 30.2 µM | – | 19.3 µM | – | > 100 µM | – | > 100 µM | 5.69 µM | – | 17.5 µM | – | > 100 µM | – | > 100 µM | –
CN(C)CCCNC(=O)c1cncnc1Nc1ccc(OCc2cccc(F)c2)c(Cl)c1 | 1.71 µM | 3.37 µM | 1.59 µM | 3.06 µM | 1.78 µM | 3.33 µM | 1.56 µM | 3.06 µM | 4.27 µM | 19.6 µM | 1.58 µM | 3.11 µM | 3.15 µM | 1.71 µM | 3.08 µM | 1.72 µM | 3.11 µM | 1.82 µM | 4.28 µM | 1.77 µM
COc1cc(O)c2c(c1)C(=O)c1cc3c(c(O)c1C2=O)C(OC1OC(C)C(O)C(O)C1OC)C(OC)C(C)(O)C3=O (configuration not stated) | – | 12 µM | 2.07 µM | 5.18 µM | – | 7.16 µM | – | 6.76 µM and 6.4 µM | 2.22 µM | 4.82 µM and 9.03 µM | 2.57 µM | 12.3 µM | 4.52 µM and 5.99 µM | 1.27 µM | 2.57 µM and 2.26 µM | 2.42 µM | 8.9 µM and 15.5 µM | 3.12 µM | 9.21 µM | –
CCOC(=O)/C(=C(/C)NCC(C)C)c1cc(O)c(O)c2c(C)cc(=O)[nH]c12 | 7.8 µM | > 100 µM | 6.22 µM | 66.7 µM | 9.21 µM | > 100 µM | 4.38 µM | > 100 µM | 10.6 µM | > 100 µM | 11.1 µM | > 100 µM | 85.1 µM | 11.1 µM | > 100 µM | 13.8 µM | > 100 µM | 5.09 µM | > 100 µM | 5.52 µM
O=c1oc2ccc(-n3c(=O)c4ccccc4c4ccccc4c3=O)cc2c2ccccc12 | – | > 100 µM | – | > 100 µM | – | > 100 µM | – | > 100 µM | – | > 100 µM | – | > 100 µM | > 100 µM | – | > 100 µM | – | > 100 µM | – | > 100 µM | –
COc1cc(-c2ncn(/C=C\C(=O)OC(C)C)n2)cc(C(F)(F)F)c1 | 0.0609 µM and 0.0783 µM | 11.6 µM and 8.63 µM | 0.0351 µM and 0.0343 µM | 1.03 µM and 1.69 µM | 0.503 µM and 0.171 µM | 15.8 µM and 15.6 µM | 0.0364 µM and 0.0477 µM | 1.67 µM and 10.4 µM | 0.0164 µM and 0.031 µM | 0.64 µM and 1.66 µM | 0.106 µM and 0.0584 µM | 14.9 µM and 12.8 µM | 0.225 µM and 0.187 µM | 0.274 µM and 0.11 µM | 1.8 µM and 2.72 µM | 0.142 µM and 0.253 µM | 13.5 µM and 14.9 µM | 0.12 µM and 0.0666 µM | 15 µM and 12 µM | 0.0146 µM and 0.018 µM
O=c1c2ccccc2c2ccccc2c(=O)n1Cc1ccc2c(c1)OCO2 | – | > 100 µM | – | 88.7 µM | – | > 100 µM | – | > 100 µM | – | > 100 µM | – | > 100 µM | > 94.5 µM | – | > 100 µM | – | > 100 µM | – | > 100 µM | –
COc1ccc2nc3ccccc3c(NCCCN(C)CCCl)c2c1 | – | 2.42 µM | – | 2.57 µM | – | 2.21 µM | – | 1.46 µM | – | 1.62 µM | – | 1.6 µM | 1.29 µM | – | 1.59 µM | – | 2.06 µM | – | 0.467 µM | –
COc1cc(-c2nn(-c3cccc(NC(=O)c4ccc(N5CCOCC5)c(C(F)(F)F)c4)c3)cc2-c2ccncc2)ccc1Cl | 0.287 µM | > 36.9 µM | 0.932 µM | > 42 µM | 0.405 µM | 9.81 µM | 0.263 µM | > 100 µM | 1.07 µM | 99.2 µM | 0.166 µM | 5.22 µM | 0.552 µM | 0.126 µM | 0.966 µM | 0.57 µM | > 100 µM | 0.471 µM | > 28.9 µM | 0.181 µM
